Tests used:
Format in all cases: in vivo
corn (Zea mays) [1] = assay: Test A postemergence application, visual injury rating 0-100; conditions: for Corn plant response rating (0-100): postemergence, 0 = no effect, 100 = complete control; for Corn plant response rating (0 to 100 scale): Postemergence
Outline: (§1)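 Visual injury ratings (0, no effect; 100, complete control) were assigned relative to untreated plants 10 days after treatment. Test chemicals, formulated with a surfactant-containing non-phytotoxic solvent, were applied in loam-sand soil either as a directed soil spray before emergence or to emerged plants, and plants were kept in a greenhouse.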

[2] = tested on: ryegrass, Italian (italian ryegrass, Lolium multiflorum); assay: as above; conditions: for Ryegrass, Italian plant response rating (0-100): postemergence, 0 = no effect, 100 = complete control; for Ryegrass, Italian plant response rating (0 to 100 scale): Postemergence
Outline: as §1

soybean (Glycine max) [3] = assay: as above; conditions: for Soybean plant response rating (0-100): postemergence, 0 = no effect, 100 = complete control; for Soybean plant response rating (0 to 100 scale): Postemergence
Outline: as §1

[4] = tested on: palmer (palmer amaranth, palmer pigweed, Amaranthus palmeri); assay: as above
Outline: as §1

[5] = tested on: wheat (Triticum aestivum); assay: as above; conditions: for Wheat plant response rating (0-100): postemergence, 0 = no effect, 100 = complete control; for Wheat plant response rating (0 to 100 scale): Postemergence
Outline: as §1

[6] = tested on: oat, wild (wild oat, Avena fatua); assay: as above; conditions: for Oat, Wild plant response rating (0-100): postemergence, 0 = no effect, 100 = complete control; for Oat, Wild plant response rating (0 to 100 scale): Postemergence
Outline: as §1

[7] = tested on: horseweed (Erigeron canadensis); assay: as above; conditions: 10 days; for Horseweed plant response rating (0-100): postemergence, 0 = no effect, 100 = complete control
Outline: as §1

[8] = tested on: green foxtail (Setaria viridis); assay: as above; conditions: for Foxtail, Green plant response rating (0-100): postemergence, 0 = no effect, 100 = complete control; for Foxtail, Green plant response rating (0 to 100 scale): Postemergence
Outline: as §1

[9] = tested on: barnyardgrass (Echinochloa crus-galli); assay: as above; conditions: for Barnyardgrass plant response rating (0-100): postemergence, 0 = no effect, 100 = complete control; for Barnyardgrass plant response rating (0 to 100 scale): Postemergence
Outline: as §1

kochia (Bassia scoparia) [10] = assay: as above; conditions: for Kochia plant response rating (0-100): postemergence, 0 = no effect, 100 = complete control; for Kochia plant response rating (0 to 100 scale): Postemergence
Outline: as §1

[11] = tested on: blackgrass (Alopecurus myosuroides); assay: as above; conditions: for Blackgrass plant response rating (0-100): postemergence, 0 = no effect, 100 = complete control; for Blackgrass plant response rating (0 to 100 scale): Postemergence
Outline: as §1

[12] = tested on: ragweed (common ragweed, Ambrosia artemisiifolia); assay: as above; conditions: for Ragweed plant response rating (0-100): postemergence, 0 = no effect, 100 = complete control; for Ragweed plant response rating (0 to 100 scale): Postemergence
Outline: as §1

corn (Zea mays) [13] = assay: Test A preemergence soil spray, visual injury rating 0-100; conditions: 10 days
Outline: as §1

[14] = tested on: ryegrass, Italian (italian ryegrass, Lolium multiflorum); assay: as above; conditions: 10 days
Outline: as §1

soybean (Glycine max) [15] = assay: as above; conditions: 10 days
Outline: as §1

[16] = tested on: palmer (palmer amaranth, palmer pigweed, Amaranthus palmeri); assay: as above; conditions: 10 days, 0 = no effect, 100 = complete control
Outline: as §1

[17] = tested on: wheat (Triticum aestivum); assay: as above; conditions: 10 days
Outline: as §1

[18] = tested on: oat, wild (wild oat, Avena fatua); assay: as above; conditions: 10 days
Outline: as §1

[19] = tested on: green foxtail (Setaria viridis); assay: as above; conditions: 10 days
Outline: as §1

[20] = tested on: barnyardgrass (Echinochloa crus-galli); assay: as above; conditions: 10 days
Outline: as §1

kochia (Bassia scoparia) [21] = assay: as above; conditions: 10 days
Outline: as §1

[22] = tested on: blackgrass (Alopecurus myosuroides); assay: as above; conditions: 10 days
Outline: as §1

[23] = tested on: ragweed (common ragweed, Ambrosia artemisiifolia); assay: as above; conditions: 10 days
Outline: as §1

[24] = tested on: barnyardgrass (Echinochloa crusgalli); assay: Test B flooded paddy test, visual plant response rating 0-100; conditions: 250 g ai/ha, Flood, applied to paddy water, evaluated after 13 days
Outline: (§2)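 Greenhouse, 13 d. Seedlings at 2-leaf stage, pots flooded to 3 cm, compound delivered into floodwater, water level held constant. Evaluated visually relative to controls.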

rice (Oryza sativa) = assay: as above; conditions: 250 g ai/ha, Flood, applied to paddy water, evaluated after 13 days
Outline: as §2

[25] = tested on: ducksalad (Heteranthera limosa); assay: as above; conditions: 250 g ai/ha, Flood, applied to paddy water, evaluated after 13 days
Outline: as §2

[26] = tested on: sedge, umbrella (small-flower umbrella sedge, Cyperus difformis); assay: as above; conditions: 250 g ai/ha, Flood, applied to paddy water, evaluated after 13 days
Outline: as §2

[27] = 16 g ai/ha, greenhouse 10 days, 0 no effect, 100 complete control
[28] = 62 g ai/ha, 0 = no effect, 100 = complete control
[29] = 125 g ai/ha, 10 days, 0 is no effect, 100 is complete control
[30] = 31 g ai/ha, 0 = no effect, 100 = complete control
[31] = 125 g ai/ha, 0 = no effect, 100 = complete control

CC(C)OC(=O)C1=CCC(NC(=O)C2(C)CN(c3cc(Cl)cc(Cl)c3)C(=O)O2)C1 (centres unmarked) [Compound 105]
Corn plant response rating (0-100) (corn (Zea mays) [1]; 62 g ai/ha, 10 days): 10
Corn plant response rating (0 to 100 scale) (corn (Zea mays) [1]; [27]): 0
Ryegrass, Italian plant response rating (0-100) ([2]; 62 g ai/ha, 10 days): 0
Ryegrass, Italian plant response rating (0 to 100 scale) [2, 27]: 0
Soybean plant response rating (0-100) (soybean (Glycine max) [3]; 62 g ai/ha, 10 days): 0
Soybean plant response rating (0 to 100 scale) (soybean (Glycine max) [3]; [27]): 0
Pigweed, Palmer plant response rating (0-100) ([4]; 62 g ai/ha, postemergence, 10 days, 0 = no effect, 100 = complete control): 10
Pigweed, Palmer plant response rating (0 to 100 scale) ([4]; Postemergence, 16 g ai/ha, greenhouse 10 days, 0 no effect, 100 complete control): 0
Wheat plant response rating (0-100) ([5]; 62 g ai/ha, 10 days): 0
Wheat plant response rating (0 to 100 scale) [5, 27]: 0
Oat, Wild plant response rating (0-100) ([6]; 62 g ai/ha, 10 days): 0
Oat, Wild plant response rating (0 to 100 scale) [6, 27]: 0
Horseweed plant response rating (0-100) ([7]; 62 g ai/ha): 20
Foxtail, Green plant response rating (0-100) ([8]; 62 g ai/ha, 10 days): 0
Foxtail, Green plant response rating (0 to 100 scale) [8, 27]: 0
Barnyardgrass plant response rating (0-100) ([9]; 62 g ai/ha, 10 days): 30
Barnyardgrass plant response rating (0 to 100 scale) [9, 27]: 0
Kochia plant response rating (0-100) (kochia (Bassia scoparia) [10]; 62 g ai/ha, 10 days): 0
Kochia plant response rating (0 to 100 scale) (kochia (Bassia scoparia) [10]; [27]): 0
Blackgrass plant response rating (0-100) ([11]; 62 g ai/ha, 10 days): 10
Blackgrass plant response rating (0 to 100 scale) [11, 27]: 0
Ragweed plant response rating (0-100) ([12]; 62 g ai/ha, 10 days): 0
Ragweed plant response rating (0 to 100 scale) [12, 27]: 0
Corn plant response rating (corn (Zea mays) [13]; 16 g ai/ha, 0 to 100 scale): 0
Corn plant response rating (0-100) (corn (Zea mays) [13]; [28]): 0
Ryegrass, Italian plant response rating ([14]; 16 g ai/ha, 0 to 100 scale): 0
Ryegrass, Italian plant response rating (0-100) [14, 28]: 0
Soybean plant response rating (soybean (Glycine max) [15]; 16 g ai/ha, 0 to 100 scale): 0
Soybean plant response rating (0-100) (soybean (Glycine max) [15]; [28]): 0
Pigweed, Palmer plant response rating (0-100) ([16]; 62 g ai/ha): 10
Wheat plant response rating ([17]; 16 g ai/ha, 0 to 100 scale): 0
Wheat plant response rating (0-100) [17, 28]: 0
Oat, Wild plant response rating ([18]; 16 g ai/ha, 0 to 100 scale): 0
Oat, Wild plant response rating (0-100) [18, 28]: 0
Foxtail, Green plant response rating ([19]; 16 g ai/ha, 0 to 100 scale): 0
Foxtail, Green plant response rating (0-100) [19, 28]: 0
Barnyardgrass plant response rating ([20]; 16 g ai/ha, 0 to 100 scale): 0
Barnyardgrass plant response rating (0-100) [20, 28]: 0
Kochia plant response rating (kochia (Bassia scoparia) [21]; 16 g ai/ha, 0 to 100 scale): 0
Kochia plant response rating (0-100) (kochia (Bassia scoparia) [21]; [28]): 0
Blackgrass plant response rating ([22]; 16 g ai/ha, 0 to 100 scale): 0
Blackgrass plant response rating (0-100) [22, 28]: 0
Ragweed plant response rating ([23]; 16 g ai/ha, 0 to 100 scale): 0
Ragweed plant response rating (0-100) [23, 28]: 0
Plant response rating, Barnyardgrass (0 to 100 scale, 0 is no effect and 100 is complete control) [24]: 0
Plant response rating, Rice (0 to 100 scale, 0 is no effect and 100 is complete control) (rice (Oryza sativa)): 0
Plant response rating, Ducksalad (0 to 100 scale, 0 is no effect and 100 is complete control) [25]: 0
Plant response rating, Sedge, Umbrella (0 to 100 scale, 0 is no effect and 100 is complete control) [26]: 0

CCOC(=O)C1CCC(NC(=O)C2(C)CN(c3cc(F)cc(F)c3)C(=O)O2)C1 (centres unmarked) [Compound 11]
Corn plant response rating (0-100) (corn (Zea mays) [1]; 31 g ai/ha, 10 days): 10
Corn plant response rating (0 to 100 scale) (corn (Zea mays) [1]; [29]): 80
Ryegrass, Italian plant response rating (0-100) ([2]; 31 g ai/ha, 10 days): 50
Ryegrass, Italian plant response rating (0 to 100 scale) [2, 29]: 70
Soybean plant response rating (0-100) (soybean (Glycine max) [3]; 31 g ai/ha, 10 days): 50
Soybean plant response rating (0 to 100 scale) (soybean (Glycine max) [3]; [29]): 60
Amaranth, Palmer plant response rating (0-100) ([4]; 31 g ai/ha, postemergence, 10 days, 0 = no effect, 100 = complete control): 30
Amaranth, Palmer / Pigweed, Palmer plant response rating (0 to 100 scale) ([4]; Postemergence, 125 g ai/ha, 10 days, 0 is no effect, 100 is complete control): 60
Wheat plant response rating (0-100) ([5]; 31 g ai/ha, 10 days): 80
Wheat plant response rating (0 to 100 scale) [5, 29]: 90
Oat, Wild plant response rating (0-100) ([6]; 31 g ai/ha, 10 days): 80
Oat, Wild plant response rating (0 to 100 scale) [6, 29]: 90
Horseweed plant response rating (0-100) ([7]; 31 g ai/ha): 30
Horseweed plant response rating (0 to 100 scale) ([7]; Postemergence, 125 g ai/ha, 0 is no effect, 100 is complete control): 20
Foxtail, Green plant response rating (0-100) ([8]; 31 g ai/ha, 10 days): 30
Foxtail, Green plant response rating (0 to 100 scale) [8, 29]: 90
Barnyardgrass plant response rating (0-100) ([9]; 31 g ai/ha, 10 days): 60
Barnyardgrass plant response rating (0 to 100 scale) [9, 29]: 100
Kochia plant response rating (0-100) (kochia (Bassia scoparia) [10]; 31 g ai/ha, 10 days): 20
Kochia plant response rating (0 to 100 scale) (kochia (Bassia scoparia) [10]; [29]): 80
Blackgrass plant response rating (0-100) ([11]; 31 g ai/ha, 10 days): 30
Blackgrass plant response rating (0 to 100 scale) [11, 29]: 90
Ragweed plant response rating (0-100) ([12]; 31 g ai/ha, 10 days): 0
Ragweed plant response rating (0 to 100 scale) [12, 29]: 0
Corn plant response rating (0-100) (corn (Zea mays) [13]; [30]): 0
Corn plant response rating (0 to 100 scale) (corn (Zea mays) [13]; [31]): 50
Ryegrass, Italian plant response rating (0-100) [14, 30]: 40
Ryegrass, Italian plant response rating (0 to 100 scale) [14, 31]: 90
Soybean plant response rating (0-100) (soybean (Glycine max) [15]; [30]): 0
Soybean plant response rating (0 to 100 scale) (soybean (Glycine max) [15]; [31]): 20
Amaranth, Palmer plant response rating (0-100) ([16]; 31 g ai/ha): 0
Amaranth, Palmer plant response rating (0 to 100 scale) ([16]; 125 g ai/ha): 30
Wheat plant response rating (0-100) [17, 30]: 90
Wheat plant response rating (0 to 100 scale) [17, 31]: 100
Oat, Wild plant response rating (0-100) [18, 30]: 20
Oat, Wild plant response rating (0 to 100 scale) [18, 31]: 80
Foxtail, Green plant response rating (0-100) [19, 30]: 0
Foxtail, Green plant response rating (0 to 100 scale) [19, 31]: 100
Barnyardgrass plant response rating (0-100) [20, 30]: 0
Barnyardgrass plant response rating (0 to 100 scale) [20, 31]: 100
Kochia plant response rating (0-100) (kochia (Bassia scoparia) [21]; [30]): 0
Kochia plant response rating (0 to 100 scale) (kochia (Bassia scoparia) [21]; [31]): 50
Blackgrass plant response rating (0-100) [22, 30]: 20
Blackgrass plant response rating (0 to 100 scale) [22, 31]: 90
Ragweed plant response rating (0-100) [23, 30]: 0
Ragweed plant response rating (0 to 100 scale) [23, 31]: 70
Plant response rating, Barnyardgrass (0 to 100 scale, 0 is no effect and 100 is complete control) [24]: 50
Plant response rating, Rice (0 to 100 scale, 0 is no effect and 100 is complete control) (rice (Oryza sativa)): 25
Plant response rating, Ducksalad (0 to 100 scale, 0 is no effect and 100 is complete control) [25]: 65
Plant response rating, Sedge, Umbrella (0 to 100 scale, 0 is no effect and 100 is complete control) [26]: 60

Source: patent US20260285850A1, “SUBSTITUTED OXAZOLIDINONES AND IMIDAZOLINONES AS HERBICIDES” (FMC CORPORATION, priority 2023, published 2026)
